Source: patent publication US20160271139A1, “METHOD FOR NON-TOXIC TREATMENT FOR DRUG WITHDRAWAL” (DEMERX, INC., priority 2013, published 2016)
Entries after “also recorded” stand apart in the source; their conditions may differ.

How the values were obtained:
dogs = assay: Single dose acute oral toxicity/TK study in dogs; format: in vivo, dog
cynomolgus monkey = assay: Single dose toxicity in cynomolgus monkeys; format: in vivo; details: oral gavage
Description: The objective of the study was to determine the toxicity and toxicokinetic profile of noribogaine following oral (gavage) administration to the cynomolgus monkey. The test article was administered as follows in Table 1:
Parameters monitored on the study included: mortality, clinical signs and body weights. Blood samples were collected for TK evaluation. […] The single dose maximum tolerated dose (MTD) was determined to be greater than 160 mg/kg based on the parameters monitored during the study.

[1] = Plasma toxicokinetics in dogs, days 1 and 14; format: in vivo, dog; details: for T1/2 / Tmax: mean plasma
Description: Noribogaine HCl was administered to groups of 4 male and 4 female dogs by single oral gavage daily for 14 days at doses of 0, 0.5, 1.0 and 5.0 mg/kg/day. An additional group of 4 male and 4 female dogs received either the vehicle control or 5.0 mg/kg/day for 14 days and were held for an additional 28 days after cessation of dosing to assess recovery from any potential drug-induced changes. The study was conducted under GLP guidelines and included comprehensive examinations of clinical signs, body weight, clinical pathology parameters, ophthalmologic examinations. ECG recordings and analyses of plasma for bioanalytical measurement of drug levels at appropriate intervals during the study. At the termination of the dosing phase and at the termination of the recovery phase, all dogs were subjected to a complete post-mortem examination including gross examination of major organs and histologic examination of an extensive list of tissues. Additional sections of brain were obtained from cerebrum, cerebellus, brain stem and spinal cord and examined histologically to evaluate potential effects on brain histopathology. In addition, these sections were examined with immunohistochemical stains for GFAP for evidence of gliosis and Calbindin for a more comprehensive examination of cerebellar Purkinje cells.

[2] = Human pharmacokinetic study, single oral dose, serum levels (Example 6); format: in vivo; details: human serum, fasting
Description: In double blind studies, fasting healthy volunteers (6 per cohort) were treated once orally with a tablet of noribogaine HCl. In escalating cohorts, the volunteers received 3 mg, 10 mg, 30 mg or 60 mg noribogaine.

[3] = Plasma noribogaine pharmacokinetics in healthy volunteers (Example 7); format: in vivo, human; details: for AUC0-216 / AUC0-∞ / CL/F / Tmax / t1/2: mean
[4] = Urine noribogaine and noribogaine glucuronide elimination in healthy volunteers; format: in vivo; details: human urine
[5] = tested on: healthy, drug-free male volunteers; assay: Pupillary miosis by pupillometry in healthy volunteers; format: in vivo, human; details: single oral 3-60 mg, vs placebo p>0.9
Description: Pulse oximetry and capnography data were collected continuously using a GE Carescape B650 monitoring system from 2 hours prior to dosing and until six hours after dosing, and thereafter at 12, 24, 48 and 72 hours post-dosing. […] Pupillary miosis was assessed by pupillometry.
Dose-proportionality of AUC and Cmax was assessed using linear regression.

[6] = tested on: healthy, drug-free male volunteers; assay: Cold pressor test in healthy volunteers; format: in vivo, human; details: single oral 3-60 mg, vs placebo p>0.9 and p=0.17
Description: Analgesic effect was assessed based on duration of hand immersion in ice water and on visual analog scale (VAS) pain scores upon hand removal from the water bath.
(§1) Safety and tolerability of noribogaine were tested in the group of volunteers from Example 1. […] Safety evaluations included clinical monitoring, recording of adverse events (AEs), safety laboratory tests, vital signs, ECO telemetry from −2 h to 6 h after dosing, and 12-lead electrocardiograms (ECGs) up to 216 hours post-dosing.

[7] = tested on: healthy, drug-free male volunteers; assay: Safety and tolerability in healthy volunteers; format: in vivo, human
Description: as §1

[8] = tested on: opioid-dependent participants; assay: Efficacy in opioid-dependent participants: time to resumption of opioid substitution treatment; format: in vivo, human
Description: The efficacy of noribogaine in humans was evaluated in opioid-dependent participants in a randomized, placebo-controlled, double-blind trial. In the first cohort, six patients were orally administered a single dose of 60 mg noribogaine, and three patients received placebo. In the second cohort, five patients were orally administered a single dose of 120 mg noribogaine, and three patients received placebo.

[9] = tested on: animal models of addiction; details: cited from earlier work
[10] = female dogs, Gr 2 - 0.5 mg/kg, D1
[11] = female dogs, Gr 2 - 0.5 mg/kg, D14
[12] = female dogs, Gr 3 - 1.0 mg/kg, D1
[13] = female dogs, Gr 3 - 1.0 mg/kg, D14
[14] = female dogs, Gr 4 - 5.0 mg/kg, D1
[15] = female dogs, Gr 4 - 5.0 mg/kg, D14
[16] = single oral dose 30 mg free base
[17] = human plasma, single oral 3 mg (n = 6)
[18] = human plasma, single oral 10 mg (n = 6)
[19] = human plasma, single oral 30 mg (n = 6)
[20] = human plasma, single oral 60 mg (n = 6)

CC[C@H]1C[C@H]2C[C@H]3c4[nH]c5ccc(O)cc5c4CCN(C2)[C@@H]13 [noribogaine]
NOAEL (dogs): 5 mg/kg | Findings at the NOAEL dose (dogs; 5 mg/kg): only transient reduction in food consumption in one dog | Clinical signs (dogs; 10 mg/kg, beginning 20 minutes after dosing, persisting until 3 h 40 m post-dose): Convulsions and other CNS-related clinical signs | Mortality (dogs; 5 (n=2) or 10 (n=2) mg/kg): no mortality occurred | Single dose maximum tolerated dose (MTD) (cynomolgus monkey): greater than 160 mg/kg | Mortality or treatment related clinical signs (cynomolgus monkey; doses up to and including 160 mg/kg): No mortality or treatment related clinical signs | T1/2 [1, 10]: 1.0 h | Tmax [1, 10]: 30 min | T1/2 [1, 11]: 1.1 h | Tmax [1, 11]: 60 min | T1/2 [1, 12]: 1.4 h | Tmax [1, 12]: 48 min | T1/2 [1, 13]: 1.6 h | Tmax [1, 13]: 30 min | T1/2 [1, 14]: 4.3 h | Tmax [1, 14]: 36 min | T1/2 [1, 15]: 5.7 h | Tmax [1, 15]: 36 min | Plasma level at 24 h post-dosing ([1]; male and female dogs of Group 4 (5.0 mg/kg), Days 1 and 14): significant levels of noribogaine were still detected | Tmax ([1]; male dogs, Gr 2 - 0.5 mg/kg, D1): 42 min | Tmax ([1]; male dogs, Gr 2 - 0.5 mg/kg, D14): 42 min | Tmax ([1]; male dogs, Gr 3 - 1.0 mg/kg, D1): 54 min | Tmax ([1]; male dogs, Gr 3 - 1.0 mg/kg, D14): 48 min | Tmax ([1]; male dogs, Gr 4 - 5.0 mg/kg, D1): 36 min | Tmax ([1]; male dogs, Gr 4 - 5.0 mg/kg, D14): 54 min | time after administration at which mean Cmax was observed ([2]; single oral dose 3 mg free base): 1.9 h | time after administration at which mean Cmax was observed ([2]; single oral dose 10 mg free base): 2.9 h | mean Cmax [2, 16]: 55.0 ng/mL | time after administration at which mean Cmax was observed [2, 16]: 1.75 h | time after administration at which mean Cmax was observed ([2]; single oral dose 60 mg free base): 1.75 h | Dose proportionality of Cmax and AUC ([3]; human plasma, 3-60 mg): increased linearly with dose | Mean half-life estimates ([3]; human plasma, across dose groups): 28 to 50 h | Time of peak concentrations after oral dosing ([3]; human plasma, across dose groups 3-60 mg): 2 to 3 h | AUC0-216 [3, 17]: 72.2 ng·h/mL | AUC0-∞ [3, 17]: 74.2 ng·h/mL | CL/F [3, 17]: 41.4 L/h | Tmax [3, 17]: 1.9 h | t1/2 [3, 17]: 40.9 h | AUC0-216 [3, 18]: 251.4 ng·h/mL | AUC0-∞ [3, 18]: 254.5 ng·h/mL | CL/F [3, 18]: 42.3 L/h | Tmax [3, 18]: 2.9 h | t1/2 [3, 18]: 49.2 h | AUC0-216 [3, 19]: 677.6 ng·h/mL | AUC0-∞ [3, 19]: 700.4 ng·h/mL | CL/F [3, 19]: 46.9 L/h | Tmax [3, 19]: 1.8 h | t1/2 [3, 19]: 27.6 h | AUC0-216 [3, 20]: 1935.4 ng·h/mL | AUC0-∞ [3, 20]: 1962.2 ng·h/mL | CL/F [3, 20]: 34.0 L/h | Tmax [3, 20]: 2.4 h | t1/2 [3, 20]: 29.1 h | Volume of distribution ([3]; human, across dose groups): 1417 to 3086 L | Total urine noribogaine elimination (sum of noribogaine and noribogaine glucuronide) ([4]; 30 mg dose group): 1.16 mg | Total urine noribogaine elimination as share of the dose administered ([4]; 30 mg dose group): 3.9% | Total urine noribogaine elimination (sum of noribogaine and noribogaine glucuronide) ([4]; 60 mg dose group): 0.82 mg | Total urine noribogaine elimination as share of the dose administered ([4]; 60 mg dose group): 1.4% | Pupillary constriction (dark-adapted pupil diameter) [5]: no evidence of pupillary constriction | Analgesic effect (duration of hand immersion, VAS pain scores) [6]: no analgesic effect | Number of adverse events reported ([7]; healthy volunteers, 3 mg dose group): five adverse events were reported by two subjects | Number of adverse events reported ([7]; healthy volunteers, 10 mg dose group, single subject): one adverse event | Number of adverse events reported ([7]; healthy volunteers, 30 mg dose group, single subject): one adverse event | Oximetry, capnography, respiratory rate ([7]; healthy volunteers, 3-60 mg): no changes in oximetry or capnography, or changes in respiratory rate | Vital signs or safety laboratory tests ([7]; healthy volunteers, 3-60 mg): no changes in vital signs or safety laboratory tests of note | QTcF values >500 msec ([7]; healthy volunteers, 3-60 mg, at any time): no QTcF values>500 msec at any time | Adverse events, Mild ([7]; healthy volunteers, Dose 3 mg): Dizziness; also recorded: Epistaxis; also recorded: Headache; also recorded: Back pain | Adverse events, Moderate ([7]; healthy volunteers, Dose 3 mg): Headache | Adverse events, Mild ([7]; healthy volunteers, Dose 10 mg): Headache | Adverse events, Mild ([7]; healthy volunteers, Dose 30 mg): Headache | Single increase in QTcF ([7]; one subject dosed with 10 mg, at 24 hours post-dosing): > 60 ms | Time to resumption of opioids longer than that reported for untreated patients in a similar study ([8]; first cohort, blinded: 60 mg noribogaine or placebo): ~2 h | Average time to resumption of opioids ([8]; first cohort, blinded: single oral 60 mg noribogaine (6 patients) or placebo (3 patients)): approximately 8.7 hours | Average time to resumption of OST ([8]; second cohort, 120 mg, five presumed noribogaine-treated patients (those with QT prolongation)): approximately 26.8 hours | Average time to resumption of opioids ([8]; second cohort, blinded: single oral 120 mg noribogaine (5 patients) or placebo (3 patients)): approximately 23 hours | Efficacy in animal models of addiction ([9]; alcohol, cocaine and opiate dependence): effective in animal models of addiction to alcohol, cocaine and opiate dependence | Psychotomimetic effects ([9]; animal model): had no activity | Drug-seeking behavior ([9]; various animal addiction models): significantly reduced drug-seeking behavior
